Results from patent US12336991B2, “Factor XIIA inhibitors” (UNIVERSITY OF LEEDS, priority 2018, dated 2025).

How the values were obtained:
Type in all cases: biochemical
[1] = target: T1, thrombin (Homo sapiens, UniProt P00734); experiment: Determination of selectivity: thrombin inhibition, chromogenic substrate GPR assay; details: fold selectivity for FXIIa over thrombin
T1 construct: FXa (5 nM) and thrombin (5 nM)
In short: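 Thrombin (5 nM) preincubated with compound 10 min at 37 °C in 50 mM Tris, 137 mM NaCl, pH 7.4, 5% DMSO, then GPR substrate ([…]) added. Absorbance at 405 nm read kinetically for 3 h; IC50 from initial rates, converted to Ki via Ki=IC50/(1+[S]/Km).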

[2] = target: FXa (Homo sapiens, UniProt P00742); experiment: Determination of selectivity: FXa inhibition, chromogenic substrate S2765 assay; details: fold selectivity for FXIIa over FXa
Sequence of FXa (P00742 235-488 limits assumed): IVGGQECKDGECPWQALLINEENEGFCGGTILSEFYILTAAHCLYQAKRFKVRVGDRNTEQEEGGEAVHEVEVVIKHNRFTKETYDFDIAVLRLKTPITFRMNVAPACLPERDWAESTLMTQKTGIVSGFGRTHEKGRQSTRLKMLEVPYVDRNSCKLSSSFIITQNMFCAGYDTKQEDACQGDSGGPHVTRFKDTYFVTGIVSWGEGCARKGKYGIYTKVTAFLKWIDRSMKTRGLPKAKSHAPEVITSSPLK
Sequence of FXa (P00742 41-179 partner limits assumed): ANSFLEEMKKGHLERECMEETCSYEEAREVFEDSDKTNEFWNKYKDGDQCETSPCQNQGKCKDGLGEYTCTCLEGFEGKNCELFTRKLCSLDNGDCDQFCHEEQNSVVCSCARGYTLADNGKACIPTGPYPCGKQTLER
In short: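 Human FXa (5 nM) preincubated with compound (top 500 μM, 5% DMSO) 10 min at 37 °C in 50 mM Tris, 137 mM NaCl pH 7.4, then S2765 ([…]) added; A405 kinetics over 3 h at 37 °C. IC50 from initial rates, converted to Ki via Cheng-Prusoff.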

[3] = target: T2, FXIIa (Homo sapiens, UniProt P00748); experiment: Determination of Factor XIIa inhibition, chromogenic substrate S-2302 assay; details: human FXIIa alpha
T2 sequence (P00748 373-615 limits assumed): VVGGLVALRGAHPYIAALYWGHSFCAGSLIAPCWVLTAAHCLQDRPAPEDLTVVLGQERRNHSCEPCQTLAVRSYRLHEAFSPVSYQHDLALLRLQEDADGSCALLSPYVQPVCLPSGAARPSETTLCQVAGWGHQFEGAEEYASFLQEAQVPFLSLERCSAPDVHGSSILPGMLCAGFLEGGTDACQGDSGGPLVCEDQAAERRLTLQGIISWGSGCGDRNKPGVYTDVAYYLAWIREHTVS
T2 sequence (P00748 20-372 partner limits assumed): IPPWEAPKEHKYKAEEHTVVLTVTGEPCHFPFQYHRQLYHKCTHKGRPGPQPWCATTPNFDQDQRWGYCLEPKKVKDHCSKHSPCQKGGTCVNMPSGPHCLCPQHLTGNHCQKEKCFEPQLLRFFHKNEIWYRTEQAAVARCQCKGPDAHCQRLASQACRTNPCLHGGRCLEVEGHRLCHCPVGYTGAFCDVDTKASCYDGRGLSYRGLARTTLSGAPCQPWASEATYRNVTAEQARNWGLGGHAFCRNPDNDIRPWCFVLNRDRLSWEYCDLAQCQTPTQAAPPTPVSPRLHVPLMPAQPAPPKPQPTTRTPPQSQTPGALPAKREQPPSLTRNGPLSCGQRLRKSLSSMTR
In short: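 FXIIa (10 nM) preincubated with compound 10 min at 37° C. in 50 mM Tris, 137 mM NaCl pH 7.4, 5% DMSO, top concentration 500 μM, then S-2302 added ([…]). Absorbance at 405 nm read kinetically for 3 h; IC50 from initial rates, converted to Ki by Cheng-Prusoff.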

Row | SMILES | Thrombin (human)/FXIIa alpha (human) [1] | FXa (human)/FXIIa alpha (human) [2] | Ki [3] [µM]
1 | COc1ccc(C[C@@H]2C[C@@H](C(=O)NCc3ccc4c(c3)nnn4C)N(C(=O)[C@H](N)CCC(=O)N3CCCC3(C)C)C2)cc1 [Example M05450] | +++ (fold selectivity values greater than 100) | ∘∘∘ | < 0.2
2 | Cn1nnc2cc(CNC(=O)[C@@H]3C[C@@H](Cc4cccc(-c5ccncc5)c4)CN3C(=O)[C@H](N)CCC(=O)N3CCCC3)ccc21 [Example M05323] | +++ (fold selectivity values greater than 100) | ∘∘∘ | < 0.2
3 | Cn1nnc2cc(CNC(=O)[C@@H]3C[C@H](C(F)(F)F)CN3C(=O)[C@H](N)CCC(=O)N3CCCC3)ccc21 [Example M05139] | +++ (fold selectivity values greater than 100) | ∘∘∘ | > 2
4 | COc1ccc(C[C@@H]2C[C@@H](C(=O)NCc3ccc4c(c3)nnn4C)N(C(=O)[C@H]3CC(c4cnccc4OC)CN3)C2)cc1 (stereo partly drawn) [Example M05410] | + (fold selectivity values less than 10) | ∘∘ | > 2
5 | COc1ccc(C[C@@H]2C[C@@H](C(=O)NCc3ccc4c(c3)nnn4C)N(C(=O)[C@H]3C[C@@H](c4ccccc4OC(F)(F)F)CN3)C2)cc1 [Example M05388] | +++ (fold selectivity values greater than 100) | ∘∘∘ | 0.2 to 2
6 | Cn1nnc2cc(CNC(=O)[C@@H]3C[C@@H](Cc4cc(F)cc(F)c4)CN3C(=O)[C@H](N)CCC(=O)N3CCCC3)ccc21 [Example M05274] | +++ (fold selectivity values greater than 100) | ∘∘∘ | 0.2 to 2
7 | COc1ccc(C[C@@H]2C[C@@H](C(=O)NCc3ccc4c(c3)nnn4C)N(C(=O)[C@H](N)CC(O)c3ccccc3)C2)cc1 (stereo partly drawn) [Example M05379] | +++ (fold selectivity values greater than 100) | ∘∘∘ | 0.2 to 2
8 | Cn1nnc2cc(CNC(=O)[C@@H]3CCCN3C(=O)[C@H](N)CCC(=O)N3CCCC3)ccc21 [Example M05308] | ++ (fold selectivity value of 10 to 100) | ∘∘ | > 2
9 | Cn1nnc2cc(CNC(=O)[C@@H]3C[C@@H](CC4CCCC4)CN3C(=O)[C@H](N)CCC(=O)N3CCCC3)ccc21 [Example M05291] | +++ (fold selectivity values greater than 100) | ∘∘∘ | 0.2 to 2
10 | Cn1nnc2cc(CNC(=O)[C@@H]3C[C@@](O)(c4ccccc4)CN3C(=O)[C@H](N)CCc3ccccc3)ccc21 [Example M05126] | ++ (fold selectivity value of 10 to 100) | ∘∘ | > 2
11 | N[C@H](CCc1ccccc1)C(=O)N1CCC[C@H]1C(=O)NCc1ccc2nccn2c1 [Example M05021] | + (fold selectivity values less than 10) | ∘∘ | > 2
12 | COc1ccc(C[C@@H]2C[C@@H](C(=O)NCc3ccc4c(c3)nnn4C)N(C(=O)[C@H]3CC(c4cnccn4)CN3)C2)cc1 (stereo partly drawn) [Example M05459] | +++ (fold selectivity values greater than 100) | ∘∘∘ | 0.2 to 2
13 | COc1ccc(C[C@@H]2C[C@@H](C(=O)NCc3ccc4c(c3)nnn4C)N(C(=O)[C@H]3CC(c4ccc(F)cc4)CN3)C2)cc1 (stereo partly drawn) [Example M05340] | ++ (fold selectivity value of 10 to 100) | ∘∘ | 0.2 to 2
14 | COc1ccc(C[C@@H]2C[C@@H](C(=O)NCc3ccc4c(c3)nnn4C)N(C(=O)[C@H](N)CCC(=O)N3C4CCC3C(=O)NC4)C2)cc1 (stereo partly drawn) [Example M05460] | +++ (fold selectivity values greater than 100) | ∘∘∘ | 0.2 to 2
15 | COc1ccc(C[C@@H]2C[C@@H](C(=O)NCc3ccc4c(c3)nnn4C)N(C(=O)[C@H](N)CCC(=O)N3CCC[C@@H]3C#N)C2)cc1 [Example M05458] | +++ (fold selectivity values greater than 100) | ∘∘∘ | < 0.2
16 | COc1ccc(C[C@@H]2C[C@@H](C(=O)NCc3ccc4c(c3)nnn4C)N(C(=O)C3NCCc4cc(O)ccc43)C2)cc1 (stereo partly drawn) [Example M05429] | ++ (fold selectivity value of 10 to 100) | ∘∘ | > 2
17 | Cn1nnc2cc(CNC(=O)[C@@H]3C[C@@H](Cc4ccc(OC(F)(F)F)cc4)CN3C(=O)[C@H]3C[C@@H](c4ccccc4)CN3)ccc21 [Example M05362] | ++ (fold selectivity value of 10 to 100) | ∘∘ | 0.2 to 2
18 | Cn1nnc2cc(CNC(=O)[C@@H]3C[C@@H](Cc4cccc(Cl)c4)CN3C(=O)[C@H](N)CCC(=O)N3CCCC3)ccc21 [Example M05190] | +++ (fold selectivity values greater than 100) | ∘∘∘ | < 0.2
19 | NCc1ccc(CNC(=O)[C@@H]2C[C@H](C3CCCCC3)CN2C(=O)[C@H](N)CCc2ccccc2)cc1 [Example M05076, (2S,4R)-1-((R)-2-Amino-4-phenyl-butyryl)-4-cyclohexyl-pyrrolidine-2-carboxylic acid 4-aminomethyl-benzylamide] | ++ (fold selectivity value of 10 to 100) | ∘∘ | > 2
20 | COc1ccc(C[C@@H]2C[C@@H](C(=O)NCc3ccc4c(c3)nnn4C)N(C(=O)[C@H](N)CCc3ccccn3)C2)cc1 [Example M05453] | +++ (fold selectivity values greater than 100) | ∘∘∘ | < 0.2
21 | CC(=O)N[C@H]1C[C@@H](C(=O)NCc2ccnc(N)c2)N(C(=O)[C@H](N)CCc2ccccc2)C1 [Example M05141] | + (fold selectivity values less than 10) | ∘ | > 2
